Source: patent US20120251999A1, “VITRIFICATION SYSTEMS AND METHODS” (THE BRIGHAM AND WOMEN'S HOSPITAL, INC., priority 2011, published 2012)
Values joined by “and” are separate entries in the source; they are usually repeats but may differ in a detail not shown here. Identical values can stand only once. Like-named read-outs stand apart in the source and are kept apart here.

What was measured:
[1] = ejected into liquid nitrogen
Source text: The experimental setup was as described in Song et al. PNAS 2010.

mouse oocytes = assay: Parthenogenetic activation of oocytes using SrCl2 (cleavage and blastocyst development); type: cell-based
Method: Prior to parthenogenetic activation, oocytes were cultured in KSOM medium supplemented with 4 mg/ml BSA for 2 h to allow oocytes to recover from the previous experimental procedure. For parthenogenetic activation, oocytes were incubated in SrCl2 solution in KSOM medium at 37° C. in 5% CO2/95% air for 2 h and then washed three-times with FHM medium. Oocytes were then transferred to KSOM medium and cultured at 37° C. in 5% CO2/95% air.
To determine the optimal SrCl2 concentration to parthenogenetically activate fresh mouse oocytes, we tested four SrCl2 concentrations (10 mM, 20 mM, 50 mM and 100 mM). Over the following 6 days, treated oocytes were examined microscopically every day for embryo development to the cleavage and blastocyst stages. Day 1 is defined as 24 h after treatment. Oocytes incubated in the regular KSOM medium without SrCl2 were used as controls. To determine whether droplet encapsulation has effect on oocyte parthenogenetic activation, oocytes in FHM medium were ejected into a center well culture dish containing 400 μl of FHM medium. To minimize the effects of shear stress generated at the ejector tip when using medium instead of CPAs, the flow rate of nitrogen gas was reduced to 0.6 SLPM to obtain droplet sizes similar to those obtained at 0.8 SLPM using CPAs. Oocytes were retrieved and cultured in KSOM medium at 37° C. in 5% CO2/95% air for 2 h before parthenogenetic activation. SrCl2 solution at the concentration of 50 mM, which gave the highest cleavage and blastocyst rates with control oocytes, was used for the activation of oocytes following ejection into the medium.

[2] = 10 mM SrCl2, fresh control oocytes
[3] = 10 mM SrCl2, fresh control oocytes, 81 initiated
[4] = 20 mM SrCl2, fresh control oocytes
[5] = 20 mM SrCl2, fresh control oocytes, 82 initiated
[6] = 50 mM SrCl2, fresh control oocytes
[7] = 50 mM SrCl2, fresh control oocytes, 79 initiated
[8] = 50 mM SrCl2, oocytes after ejection with medium
[9] = 100 mM SrCl2, fresh control oocytes
[10] = 100 mM SrCl2, fresh control oocytes, 88 initiated

CC(O)CO (stereo not shown) [PrOH, 1,2-propanediol]
vitrification of droplets ([1]; 194 μm droplets, 3 M PrOH): vitrified | vitrification of droplets ([1]; 525 μm droplets, 4.5 M PrOH): non-vitrified

[Cl-].[Cl-].[Sr+2] [SrCl2]
Blastocysts developed (%) (mouse oocytes; [2]): 0 (0) | Oocytes cleaved (%) (mouse oocytes; [2]): 3.7% | Blastocysts developed (number) (mouse oocytes; [3]): 0 (0) | No. of Oocytes cleaved (mouse oocytes; [3]): 3 | Blastocysts developed (%) (mouse oocytes; [4]): 15.9% | Oocytes cleaved (%) (mouse oocytes; [4]): 46.3% | Blastocysts developed (number) (mouse oocytes; [5]): 13 | No. of Oocytes cleaved (mouse oocytes; [5]): 38 | Blastocysts developed (%) (mouse oocytes; [6]): 49.4% | Oocytes cleaved (%) (mouse oocytes; [6]): 88.9% and 88.6% | Blastocysts developed (number) (mouse oocytes; [7]): 33 | No. of Oocytes cleaved (mouse oocytes; [7]): 70 | Blastocysts developed (%) (mouse oocytes; [8]): 26.0% | Oocytes cleaved (%) (mouse oocytes; [8]): 96% and 97.0% | Blastocysts developed (number) (mouse oocytes; 50 mM SrCl2, oocytes after ejection with medium, 100 initiated): 26 | No. of Oocytes cleaved (mouse oocytes; 50 mM SrCl2, oocytes after encapsulation in medium droplets and ejection into medium, 100 initiated): 96 | Blastocysts developed (%) (mouse oocytes; [9]): 2.3% | Oocytes cleaved (%) (mouse oocytes; [9]): 48.9% | Blastocysts developed (number) (mouse oocytes; [10]): 2 | No. of Oocytes cleaved (mouse oocytes; [10]): 43
